The values below come from paper PMC11772769, “Selective cargo and membrane recognition by SNX17 regulates its interaction with Retriever” (EMBO Reports, 2024).

For one experiment, the target named is T1, MBP-SNX17 L470G (Homo sapiens, UniProt Q15036, L470G).
T1 construct: M protein marker, R Retriever complex, FL full-length; His (N, cleaved yes); made in house; host or cells: Escherichia coli BL21(DE3)
T1 sequence (Q15036 1-470 L470G): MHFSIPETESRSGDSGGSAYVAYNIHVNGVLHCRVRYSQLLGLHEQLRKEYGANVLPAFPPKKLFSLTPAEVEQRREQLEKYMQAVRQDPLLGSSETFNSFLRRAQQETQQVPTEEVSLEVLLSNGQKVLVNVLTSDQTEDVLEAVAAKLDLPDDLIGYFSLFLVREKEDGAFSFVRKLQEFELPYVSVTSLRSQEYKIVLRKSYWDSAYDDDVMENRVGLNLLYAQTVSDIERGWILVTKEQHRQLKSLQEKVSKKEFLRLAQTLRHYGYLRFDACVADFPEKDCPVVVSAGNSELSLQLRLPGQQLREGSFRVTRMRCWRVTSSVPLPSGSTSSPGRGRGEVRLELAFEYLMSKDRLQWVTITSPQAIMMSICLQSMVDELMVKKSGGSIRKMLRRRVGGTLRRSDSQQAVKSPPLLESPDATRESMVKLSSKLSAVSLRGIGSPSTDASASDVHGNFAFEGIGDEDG
As to the kind of experiment: Fluorescence anisotropy binding of 5-FAM cargo peptides to MBP-SNX17 L470G. As to the method: (§1) The peptides used for binding assays were synthesized with an N-terminal 5-Carboxyfluorescein (FAM) and HPLC purified (≥95%) by GenScript. Lyophilized peptides were resuspended in 100 mM Hepes pH 8.0 at 5 mg/ml and further diluted in the assay buffer (50 mM Hepes pH 7.5, 300 mM NaCl, and 1 mM DTT). […] The mixture was incubated at 25 °C for at least 30 min and then transferred to 96 Flat Black plates. Fluorescence anisotropy was measured at 25 °C using Spark 10M Plate Reader (Tecan) with a 485/20 excitation filter and a 535/35 emission filter. The dissociation constants were calculated in GraphPad Prism by nonlinear regression fitting of the experimental data to a one-site total binding model. The final KD measurement is the mean of at least two independent experiments.

For the next experiment, the target named is MBP (Escherichia coli, UniProt P0AEX9). As to the kind of experiment: Fluorescence anisotropy, MBP negative control. It counts as binding. As to the method:
as §1, with “Lyophilized” for “The peptides used for binding assays were synthesized with an N-terminal 5-Carboxyfluorescein (FAM) and HPLC purified (≥95%) by GenScript. Lyophilized”

Read-outs that look alike come from different tables or passages of the source. Where no end group is shown, it is not given here. Bounds are passed on as bounds.

In the case of KLITYDNPAYEGID [L2 14-mer], the Kd at MBP-SNX17 L470G was 1.1 ± 0.6 µM; at MBP (0.1 μM 5-FAM peptide, pH 7.5, 300 mM NaCl, 25 °C (Fig. EV3B), read-out: KD MBP (negative control)) it was above 32 µM; at MBP (5-FAM peptide, replicate Y1, sheet KD-L2-14-mer, unit inferred, read-out: KD MBP) it was above 32 µM; on MBP (5-FAM peptide, replicate Y2, sheet KD-L2-14-mer, unit inferred, read-out: KD MBP), above 32 µM; on MBP (5-FAM peptide, replicate Y3, sheet KD-L2-14-mer, unit inferred, read-out: KD MBP), above 32 µM.
